Experimental data as given in patent US20220193047A1, “METHODS OF ENHANCING RADIOTHERAPY USING FERROPTOSIS INDUCERS AS RADIOSENSITIZERS” (THE TRUSTEES OF COLUMBIA UNIVERSITY IN THE CITY OF NEW YORK, priority 2019, published 2022).
“Also recorded” adds a separate entry of the source.

Tests used:
Format in all cases: cell-based
HT-1080 cells = experiment: Clonogenic assay with Cs-137 gamma radiation, HT-1080; details: for Highest observed coefficient of Drug Interaction (CDI) in combination with IR: HT-1080; for Enhancement of radiation effect on clonogenic survival: HT-1080, cell death inducer plus radiation; for CDI with 4 Gy IR / CDI with 2 Gy IR: HT-1080 cells, CDI<1 synergy; for CDI with 2 Gy IR: inducer concentration (300 nM IKE, 20 nM RSL3, 1 nM staurosporine, 2 nM doxorubicin, 300 nM rapamycin, 100 ng/mL TNF + 20 μM Z-VAD-FMK + 300 nM birinapant)
Protocol: 500 cells were seeded per well in 6-well plates in their respective growth media and incubated overnight. The next day, cells were co-treated with DMSO or compounds and radiation using a Gammacell 40 Caesium-137 irradiator (Theratronics). Plates were monitored every day using a light microscope for formation of colonies in the DMSO-treated wells. When colonies of >50 cells are clearly visible, the growth medium was discarded from all plates. The cells were washed with PBS, then fixed and stained with crystal violet solution (0.05% crystal violet, 1% formaldehyde, 1% methanol in PBS). Colonies were then directly visualized and counted.
We tested their ability to prevent clonogenic growth, along with DMSO-treated controls.
The coefficient of drug interaction (CDI), used to compute interaction between two drugs, was used to quantify synergy between cell death inducers and radiation according to the formula CDI=AB/(A×B), where AB is the surviving fraction of the combination treatment, and A and B are the surviving fractions of the individual treatments.

PTGS2 mRNA = experiment: RT-qPCR of PTGS2 mRNA; details: HT-1080, 6 Gy radiation, 24 hours; 100 nM RSL3 or 10 μM ferrostatin-1
Protocol: RNA was extracted using the Qiashredder and QIAGEN RNeasy Mini kits (QIAGEN) according to the manufacturer's protocol. 2 μg total RNA for each sample was used as input for each reverse transcription reaction. Quantitative PCR reactions were performed using the Power SYBR Green PCR Master Mix (Thermo Fisher Scientific). Triplicate samples per condition were analyzed on an Applied Biosystems 7300 qPCR instrument using absolute quantification settings. Differences in mRNA levels compared to ACTB internal reference control were computed between control and experimental conditions using the ΔΔCt method. The primers used in this study are listed below.

[1] = system: lipid peroxidation in HT-1080 cells; experiment: Lipid ROS assay by flow cytometry (C11-BODIPY); details: HT-1080, 24 h, 6 Gy radiation with 1 μM IKE or 50 nM RSL3; ferrostatin-1 co-treatment
Protocol: 0.5 million cells were seeded in 10 cm dishes. The next day, they were co-treated with ferroptosis-modulating compounds and radiation and returned to the incubator. On the following day, cells were harvested in 15 ml tubes and washed twice with PBS followed by re-suspending in 500 μl of PBS containing 10 μM of BODIPY-C11 dye (Thermo Fisher Scientific, cat #D3861), and incubated at 37° C. for 30 minutes. The cells were then collected at 300× g for 5 minutes, washed with PBS three times, and subjected to the flow cytometry analysis. C6 flow cytometry system (BD Accuri cytometers) was used for the flow cytometer analysis. A minimum of 10,000 cells were analyzed per condition.
To confirm that radiation causes lipid peroxidation in these cells, lipid peroxidation was also measured with C-11 BODIPY (581/591), a membrane-targeted lipid sensor dye. […] The resulting enhancement was reversed in both cases by also co-treating the cells with ferrostatin-1.

[2] = system: γH2AX foci in HT-1080 cells; experiment: γH2AX immunofluorescence staining; details: for Number of γH2AX foci: HT-1080, 30 minutes, 0 or 6 Gy, 10 μM IKE, 1 μM RSL3, 10 μM ferrostatin-1; for γH2AX foci formation, compound alone: HT-1080, 6 h, no radiation; for γH2AX foci in irradiated groups vs DMSO: HT-1080, 6 h post-treatment, 6 Gy
Protocol: 10,000 cells were seeded on cover slips placed inside wells of 6-well plates. The next day, cells were treated with ferroptosis modulators and/or radiation, then returned to the incubator for 30 minutes or 6 hours. After the growth medium was removed, the cells were washed with PBS and fixed with 100 μl 4% paraformaldehyde per well for 10 minutes at room temperature. After three washes with PBS, cells were permeabilized with 100 μl Triton X-100 (0.1% v/v) per well for 10 minutes incubation at room temperature. Non-specific protein binding was blocked with 100 μl of BSA (1% v/v) per well for 20 minutes at room temperature. After removing excess BSA, 100 μl of primary mouse monoclonal anti-phospho histone-H2AX antibody (1:500) was added to each well for a 1-hour incubation at room temperature. Cells were washed with PBS and incubated with 100 μl of secondary antibody per well for 45 minutes at room temperature in the dark. Cells were washed with PBS and mounted on slides with one drop of Prolong anti-fade reagent with DAPI (Invitrogen) per coverslip. Slides were stored at 4° C. in the dark before analysis on a Zeiss LSM 700 confocal microscope with constant laser intensity for all analyzed samples.
Mechanisms of the cellular lethality from radiation are thought to be mainly derived from the downstream caspase-dependent apoptosis induced by DNA damage, including complex double-strand DNA breaks (Lomax et al., 2013; Morgan and Lawrence, 2015). Therefore, it was desired to determine if ferroptosis inducers and radiation induce DNA damage or affect DNA repair. The extent of these effects of radiation was evaluated by measuring DNA damage and caspase activation in HT-1080 cells co-treated with radiation and ferroptosis inducers. […] The cells were either treated with radiation (6 Gy) or not irradiated (0 Gy) as a control.

[3] = system: percent tail DNA in HT-1080 cells; experiment: Comet assay; details: for DNA single strand damage (percent tail DNA), compound alone: HT-1080, 10 μM IKE or 1 μM RSL3, 30 minutes or 4 hours; for DNA damage (percent tail DNA), combined with radiation: HT-1080, 6 Gy, 30 minutes or 4 hours
Protocol: 100,000 HT-1080 cells were seeded per well in 6-well plates and incubated overnight. On the next day, the cells were treated with ferroptosis modulators and/or radiation, then returned to the incubator for 30 minutes or 4 hours before being harvested with trypsin and counted. The comet assay was performed using the CometAssay kit (Trevigen) following the alkaline comet assay product instructions. All images were captured on a Zeiss LSM 700 confocal microscope with constant laser intensity for all analyzed samples. The fluorescent signal of each comet was analyzed using NIH ImageJ software.
To test for other forms of DNA damage that cannot be detected by the γH2AX assay, a comet assay, which detects single strand DNA damage in addition to double strand breaks, was performed in HT-1080 cells treated under the same conditions.

malondialdehyde (MDA) = experiment: TBARS assay of MDA levels; details: HT-1080, 24 h; 1 μM IKE or 10 μM ferrostatin-1, with or without 6 Gy radiation
Protocol: 2 million cells were seeded in T175 flasks. […] The whole lysate was used to determine MDA concentration in each sample. We used the TBARS assay kit (Cayman Chemical) and followed the product instructions.
Next, levels of malondialdehyde (MDA), a biomarker for lipid peroxidation and ferroptosis, were quantified using an assay that measures thiobarbituric acid reactive substances (TBARS) (Gaschler et al., 2018). In this assay, thiobarbituric acid (TBA) was added to cell lysates and heated under acidic conditions to form the MDA-TBA adduct, which was measured colorimetrically.

SMILES	Highest observed coefficient of Drug Interaction (CDI) in combination with IR (HT-1080 cells)	Enhancement of radiation effect on clonogenic survival (HT-1080 cells)	CDI with 4 Gy IR (HT-1080 cells)	CDI with 2 Gy IR (HT-1080 cells)	PTGS2 mRNA (PTGS2 mRNA)	C-11 BODIPY fluorescence [1]	Number of γH2AX foci [2]	γH2AX foci formation, compound alone [2]	γH2AX foci in irradiated groups vs DMSO [2]	DNA single strand damage (percent tail DNA), compound alone [3]	DNA damage (percent tail DNA), combined with radiation [3]	MDA levels (malondialdehyde (MDA))	Colony formation after radiation alone (HT-1080 cells; HT-1080, 2 or 4 Gy radiation, no ferroptosis inducer)	Synergy between IKE or RSL3 and radiation in colony formation (HT-1080 cells; HT-1080, co-treatment with ferroptosis inhibitor)	Synergy between sorafenib and radiation in colony formation (HT-1080 cells; HT-1080, co-treatment with ferrostatin-1)
COC(=O)c1ccc([C@@H]2c3[nH]c4ccccc4c3C[C@@H](C(=O)OC)N2C(=O)CCl)cc1 [RSL3, Ras Synthetic Lethal 3]	0.09	significantly enhanced the effects of radiation	0.09	0.27	even further enhanced	significantly increased C-11 BODIPY fluorescence	did not affect the number of observed γH2AX foci	did not result in γH2AX foci formation	no differences were observed	not detect a significant increase	no significant enhancement of DNA damage				
CC(C)Oc1ccc(C(=O)Cn2ccnc2)cc1-n1c(CN2CCN(C(=O)COc3ccc(Cl)cc3)CC2)nc2ccccc2c1=O [IKE, imidazole ketone erastin]	0.17	significantly enhanced the effects of radiation	0.17	0.35		significantly increased C-11 BODIPY fluorescence	did not affect the number of observed γH2AX foci	did not result in γH2AX foci formation	no differences were observed	not detect a significant increase	no significant enhancement of DNA damage	significantly elevated			
CCOC(=O)c1ccc(NC2CCCCC2)c(N)c1 [ferrostatin-1]					reversed this induction of PTGS2	reversed	did not affect the number of observed γH2AX foci		no differences were observed		did not observe a significant protective effect	significantly lower levels of MDA	significantly rescued colony formation; also recorded: partially rescued cell death induced by radiation alone	suppress the synergy	partially suppressible
